The results in this text go back to US20230250096A1, “SUBSTITUTED PHENYL-1H-PYRROLO[2,3-c] PYRIDINE DERIVATIVES” (Janssen Pharmaceutica NV, priority 2021, published 2023).

Molecules are shown by their SMILES. Where two headings read alike, the source gives them in different places.

Assay [1] concerns MEIS1 mRNA expression. Briefly: MEIS1 mRNA expression assay (Quantigene Singleplex) in MOLM14 cells. The class given is cell-based, human. The settings on record: 48 hours incubation. In outline: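 Read-out: MEIS1 transcript counts, background-subtracted and divided by RPL28, expressed as fold change over DMSO-treated cells, then dose-response modelled for IC50. MOLM14 cells (3,750/well) received graded compound for 48 h before lysis and QuantiGene hybridization at 55 °C.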

The test system of assay [2] is MOLM14 cells. Description: Proliferation assay (spheroid confluence, 8 days), MOLM14. It counts as cell-based, human. The settings on record: read-out: spheroid assay_MOLM14 IC50. As to the method: The anti-proliferative effect of menin/MLL protein/protein interaction inhibitor test compounds was assessed in human leukemia cell lines. The cell line MOLM14 harbors a MLL translocation and expresses the MLL fusion protein MLL-AF9, respectively, as well as the wildtype protein from the second allele. OCI-AML3 cells that carry the NPM1c gene mutation were also tested. […] KO-52 was used as a control cell line containing two MLL (KMT2A) wildtype alleles in order to exclude compounds that display general cytotoxic effects.
MOLM14 cells were cultured in RPMI-1640 (Sigma Aldrich) supplemented with 10% heat-inactivated fetal bovine serum (HyClone), 2 mM L-glutamine (Sigma Aldrich) and 50 μg/ml gentamycin (Gibco). KO-52 and OCI-AML3 cell lines were propagated in alpha-MEM (Sigma Aldrich) supplemented with 20% heat-inactivated fetal bovine serum (HyClone), 2 mM L-glutamine (Sigma Aldrich) and 50 μg/ml gentamycin (Gibco).
In order to assess the anti-proliferative effects, 200 MOLM14 cells, 200 OCI-AML3 cells or 300 KO-52 cells were seeded in 200 μl media per well in 96-well round bottom, ultra-low attachment plates (Costar, catalogue number 7007). Cell seeding numbers were chosen based on growth curves to ensure linear growth throughout the experiment. Test compounds were added at different concentrations and the DMSO content was normalized to 0.3%. Cells were incubated for 8 days at 37° C. and 5% CO2. Spheroid like growth was measured in real-time by live-cell imaging (IncuCyteZOOM, Essenbio, 4×objective) acquiring images at day 8. Confluence (%) as a measure of spheroid size was determined using an integrated analysis tool.
In order to determine the effect of the test compounds over time, the confluence in each well as a measure of spheroid size, was calculated. Confluence of the highest dose of a reference compound was used as baseline for the LC (Low control) and the confluence of DMSO treated cells was used as 0% cytotoxicity (High Control, HC).
Absolute IC50 values were calculated as percent change in confluence as follows:
LC=Low Control: cells treated with e.g. 1 μM of the cytotoxic agent staurosporin, or e.g. cells treated with a high concentration of an alternative reference compound
HC=High Control: Mean confluence (%) (DMSO treated cells)
% Effect=100−(100*(Sample−LC)/(HC−LC))
GraphPad Prism (version 7.00) was used to calculate the IC50. Dose-response equation was used for the plot of % Effect vs Log10 compound concentration with a variable slope and fixing the maximum to 100% and the minimum to 0%.

For assay [3], the target named is T1, menin/MLL (terbium chelate-labeled menin, FITC-MBM1 peptide) (Homo sapiens, UniProt O00255, T541A).
T1 construct: Menin (a.a 1-610-6xhis tag, 2.3 mg/mL in 20 mM Hepes)
T1 sequence (O00255 with tags, fused parts or gaps T541A): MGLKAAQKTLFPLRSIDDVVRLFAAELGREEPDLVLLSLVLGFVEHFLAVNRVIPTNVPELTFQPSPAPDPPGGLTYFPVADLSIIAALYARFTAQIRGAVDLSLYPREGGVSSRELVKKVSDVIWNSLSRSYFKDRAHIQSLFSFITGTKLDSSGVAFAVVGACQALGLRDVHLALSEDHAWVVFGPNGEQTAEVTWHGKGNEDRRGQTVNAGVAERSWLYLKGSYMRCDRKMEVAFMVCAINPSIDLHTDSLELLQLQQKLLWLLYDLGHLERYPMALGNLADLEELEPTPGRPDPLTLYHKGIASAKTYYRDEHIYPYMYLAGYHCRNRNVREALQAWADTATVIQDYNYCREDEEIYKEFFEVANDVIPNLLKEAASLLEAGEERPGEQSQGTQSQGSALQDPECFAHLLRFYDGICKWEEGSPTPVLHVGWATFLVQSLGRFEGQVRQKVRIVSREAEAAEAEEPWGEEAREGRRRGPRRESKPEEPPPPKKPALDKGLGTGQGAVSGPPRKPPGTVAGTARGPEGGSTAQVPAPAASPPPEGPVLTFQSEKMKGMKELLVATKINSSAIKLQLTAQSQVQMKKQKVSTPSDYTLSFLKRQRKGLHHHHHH
Briefly: Menin/MLL homogenous time-resolved fluorescence (HTRF) assay. The settings on record: 30 min incubation. The class given is binding. The essentials:
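Competition binding read by time-resolved FRET (FITC 520 nm over terbium 490 nm) after compound meets labeled menin 1-610-His […] for 30 min, then FITC-MBM1 (75 nM) for 15 min, ambient temperature, 0.5% DMSO. Eleven-point four-fold dilutions, usually starting at 10 μM, fitted to four-parameter curves for IC50.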
(In TR-FRET formats the signal depends on donor and acceptor labels being close together.)

As for `COCC1CCCN1C(=O)c1cc(F)ccc1-n1cc(C[C@@H]2CCN(CC3CCN(C(C)=O)CC3)C2)c2c(C)cncc21` (stereo partly drawn) [Compound 321], the IC50 in assay [1] (Homo sapiens, MOLM-14, 48 h) stood at 413 nM; in assay [2] (Homo sapiens, MOLM-14, MOLM14) it was 232 nM; in assay [3] it was 0.257 nM.
On the same counts, the results for `Cc1cncc2c1c(C[C@H]1CCN(CC3CCN(C(=O)NC4CC4)CC3)C1)cn2-c1ccc(F)cc1C(=O)N(C)C(C)C` [Compound 157] are 6 nM, 2 nM and 0.02 nM.
In the same order, the values of `CNC(=O)[C@H]1CC[C@H]([C@H](C)N2CC(Cc3cn(-c4ccc(F)cc4C(=O)N(C)C(C)C)c4cncc(C)c34)C2)CC1` (single isomer, unassigned) [Compound 163] are about 623 nM, 456 nM and 0.192 nM.
As to `CN=S(=O)(c1cc(F)ccc1-n1cc(CC2CCN(CC3CCOCC3)C2)c2c(C)cncc21)C(C)C` (single isomer, unassigned) [Compound 77a], the values for the half-maximal inhibitory concentration (IC50) in assay [1], in assay [2] (MOLM14) and in assay [3] were 206 nM, 117 nM and 0.105 nM, respectively.
Take `CON(C)C(=O)N1CCC(CN2CC[C@@H](Cc3cn(-c4ccc(F)cc4C(=O)N(C)C(C)C)c4cncc(C)c34)C2)CC1` [Compound 173]: the 50% inhibitory concentration (IC50) in assay [1] (Homo sapiens, MOLM-14, 48 h) came out at 32 nM; in assay [2] (Homo sapiens, MOLM-14, MOLM14), 5 nM; in assay [3], 0.056 nM.
On to `COCCNC(=O)[C@H]1CC[C@H](CN2CC(Cc3cn(-c4ccc(F)cc4C(=O)N(C)C(C)C)c4cncc(C)c34)C2)CC1` [Compound 158], for which the IC50 in assay [1] (Homo sapiens, MOLM-14, 48 h) turned out to be 24 nM; in assay [2] (Homo sapiens, MOLM-14, MOLM14), 6 nM; in assay [3], 0.045 nM.
For `CN=[S@@](=O)(c1cc(F)ccc1-n1cc(CC2CN(CC3CCOCC3)C2)c2c(C)cncc21)C(C)C` (single isomer, unassigned) [Compound 166b], the IC50 in assay [1] (Homo sapiens, MOLM-14, 48 h) is 256 nM; in assay [2] (Homo sapiens, MOLM-14, MOLM14), 120 nM; in assay [3], 0.226 nM.
In the case of `COCCN(C)C(=O)N1CCC(CN2CC[C@@H](Cc3cn(-c4ccc(F)cc4C(=O)N(C)C(C)C)c4cncc(C)c34)C2)CC1` [Compound 172], the IC50 in assay [1] (Homo sapiens, MOLM-14, 48 h) was 18 nM; in assay [2] (Homo sapiens, MOLM-14, MOLM14), 11 nM; in assay [3], 0.134 nM.
`CC(=O)N1CCC([C@@H](C)N2CC(Cc3cn(-c4ccc(F)cc4C(=O)N(C)C(C)C)c4cncc(C)c34)C2)CC1` (single isomer, unassigned) [Compound 150]: the 50% inhibitory concentration (IC50) is over 1000 nM in assay [1] (Homo sapiens, MOLM-14, 48 h); 1470 nM in assay [2] (Homo sapiens, MOLM-14, MOLM14); 0.43 nM in assay [3].
On the same counts, the results for `CC(=O)N1CCC(O)(CN2CC[C@@H](Cc3cn(-c4ccc(F)cc4C(=O)N(C)C(C)C)c4cncc(C)c34)C2)CC1` [Compound 177] are 268 nM, 35 nM and 0.109 nM.
In the case of `COCC(=O)N1CCC(C(C)N2CCC(Cc3cn(-c4ccc(F)cc4C(=O)N(C)C(C)C)c4cncc(C)c34)C2)CC1` (single isomer, unassigned) [Compound 117b], the concentration for half-maximal inhibition (IC50) in assay [1] turned out to be 411 nM; in assay [2] (MOLM14) it was 300 nM; in assay [3], 0.27 nM.
In the case of `Cc1cncc2c1c(CC1CCN(CC3CCN(C(=O)C(C)(C)C#N)CC3)C1)cn2-c1ccc(F)cc1C(=O)N(C)C(C)C` (single isomer, unassigned) [Compound 126], the IC50 in assay [1] (Homo sapiens, MOLM-14, 48 h) turned out to be 32 nM; in assay [2] (Homo sapiens, MOLM-14, MOLM14), 18 nM; in assay [3], 0.091 nM.
Take `CC(=O)N1CCC(CN2CC[C@@H](Cc3cn(-c4ccc(F)cc4C(=O)N4CCC[C@H]4CO)c4cncc(C)c34)C2)CC1` [Compound 323]: the 50% inhibitory concentration (IC50) in assay [1] (Homo sapiens, MOLM-14, 48 h) was about 146 nM; in assay [2] (Homo sapiens, MOLM-14, MOLM14), 142 nM; in assay [3], 0.08 nM.
With `Cc1cncc2c1c(C[C@@H]1CCN(CC3CCOCC3)C1)cn2-c1ccc(F)cc1C(=O)N1CCC[C@@]1(C)CO` (single isomer, unassigned) [Compound 362b], the concentration for half-maximal inhibition (IC50) came to 19 nM in assay [1] (Homo sapiens, MOLM-14, 48 h); 12 nM in assay [2] (Homo sapiens, MOLM-14, MOLM14); 0.067 nM in assay [3].

As usually defined, the IC50 is the concentration that inhibits the measured activity by half.
